Test results from ChEMBL document CHEMBL6103580, “Synthesis and biological evaluation of natural cleistanolate, its enantiomer and analogues” (Eur J Med Chem, 2025).
Calls of active or inactive are those of the source. No cut-off for these calls is given here.

Key:
A549 = assay: Antiproliferative activity against human A549 cells assessed as inhibition of cell growth incubated for 72 hrs by MTT assay; type: functional, cell-based; conditions: A549, 72 h
HeLa = assay: Antiproliferative activity against human HeLa cells assessed as inhibition of cell growth incubated for 72 hrs by MTT assay; type: functional, cell-based
MCF7 = assay: Antiproliferative activity against human MCF7 cells assessed as inhibition of cell growth incubated for 72 hrs by MTT assay; type: functional, cell-based; conditions: MCF7, 72 h
Raji [1] = assay: Antiproliferative activity against human Raji cells assessed as inhibition of cell growth incubated for 72 hrs by MTT assay; type: functional, cell-based
Jurkat = assay: Antiproliferative activity against human Jurkat cells assessed as inhibition of cell growth incubated for 72 hrs by MTT assay; type: functional, cell-based
[2] = Antiproliferative activity against human MRC5 cells assessed as inhibition of cell growth incubated for 72 hrs by MTT assay; type: toxicity, cell-based
K562 = assay: Antiproliferative activity against human K562 cells assessed as inhibition of cell growth incubated for 72 hrs by MTT assay; type: functional, cell-based; conditions: K562, 72 h
HL-60 = assay: Antiproliferative activity against human HL-60 cells assessed as inhibition of cell growth incubated for 72 hrs by MTT assay; type: functional, cell-based; conditions: HL-60, 72 h
MDA-MB-231 = assay: Antiproliferative activity against human MDA-MB-231 cells assessed as inhibition of cell growth incubated for 72 hrs by MTT assay; type: functional, cell-based; conditions: MDA-MB-231, 72 h
Vibrio cholerae = assay: Antibacterial activity against Vibrio cholerae O139 CIRS 245 assessed as reduction in cell viability incubated for 24 hrs by muller hinton broth microdilution based XTT assay; type: functional
Candida tropicalis = assay: Antifungal activity against Candida tropicalis CCY 29-7-62 assessed as reduction in fungal growth incubated for 48 hrs by muller hinton broth microdilution based XTT assay; type: functional
Escherichia coli [3] = assay: Antibacterial activity against Escherichia coli ZPM 132 assessed as reduction in cell viability incubated for 24 hrs by muller hinton broth microdilution based XTT assay; type: functional
Streptococcus pneumoniae = assay: Antibacterial activity against Streptococcus pneumoniae ZPM 187 assessed as reduction in cell viability incubated for 24 hrs by muller hinton broth microdilution based XTT assay; type: functional
Escherichia coli [4] = assay: Antimicrobial activity against Escherichia coli ZPM 132 assessed as reduction in cell viability incubated for 24 hrs by muller hinton broth microdilution based XTT assay; type: functional
[5] = molecular target: Cholinesterase (Homo sapiens) (UniProt P06276); assay: Inhibition of human BChE at 100 uM using acetylthiocholine iodide as substrate by DTNB reagent based Ellman spectrophotometric analysis relative to control
Raji [6] = assay: Potency index, ratio of cleistanolate IC50 to test compound IC50 for antiproliferative activity against human Raji cells assessed as inhibition of cell growth incubated for 72 hrs by MTT assay; type: functional
[7] = Potency index, ratio of cleistanolate IC50 to test compound IC50 for antiproliferative activity against human HeLa cells assessed as inhibition of cell growth incubated for 72 hrs by MTT assay; type: functional
Raji [8] = assay: Potency index, ratio of doxorubicin IC50 to test compound IC50 for antiproliferative activity against human Raji cells assessed as inhibition of cell growth incubated for 72 hrs by MTT assay; type: functional
[9] = Potency index, ratio of doxorubicin IC50 to test compound IC50 for antiproliferative activity against human HL-60 cells assessed as inhibition of cell growth incubated for 72 hrs by MTT assay; type: functional

Cholinesterase (Homo sapiens), sequence (P06276 whole entry): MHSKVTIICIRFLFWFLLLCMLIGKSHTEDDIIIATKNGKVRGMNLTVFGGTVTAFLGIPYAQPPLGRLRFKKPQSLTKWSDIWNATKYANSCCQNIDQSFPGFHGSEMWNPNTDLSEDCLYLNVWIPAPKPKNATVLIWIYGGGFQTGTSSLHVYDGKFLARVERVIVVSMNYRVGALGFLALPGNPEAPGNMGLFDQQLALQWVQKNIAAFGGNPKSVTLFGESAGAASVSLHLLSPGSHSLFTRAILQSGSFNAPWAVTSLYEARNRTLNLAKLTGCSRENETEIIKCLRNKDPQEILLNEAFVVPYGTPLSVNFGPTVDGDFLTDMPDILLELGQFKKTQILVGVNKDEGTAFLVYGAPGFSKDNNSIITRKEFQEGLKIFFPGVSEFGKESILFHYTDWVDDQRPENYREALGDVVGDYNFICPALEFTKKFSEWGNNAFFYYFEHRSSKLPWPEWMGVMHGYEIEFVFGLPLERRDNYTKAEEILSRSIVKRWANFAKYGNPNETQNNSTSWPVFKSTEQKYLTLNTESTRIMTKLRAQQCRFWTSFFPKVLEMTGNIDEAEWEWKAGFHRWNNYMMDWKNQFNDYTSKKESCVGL

Structure (SMILES)	IC50 (A549) [µM]	IC50 (HeLa) [µM]	IC50 (MCF7) [µM]	IC50 (Raji [1]) [µM]	IC50 (Jurkat) [µM]	IC50 at 72 h [2] [µM]	IC50 (K562) [µM]	IC50 (HL-60) [µM]	IC50 (MDA-MB-231) [µM]	MBC (Vibrio cholerae) [µg/mL]	MFC (Candida tropicalis) [µg/mL]	MBC (Escherichia coli [3]) [µg/mL]	MBC (Streptococcus pneumoniae) [µg/mL]	MIC (Escherichia coli [4]) [µg/mL]	inhibition [5]	Ratio IC50 (Raji [6])	Ratio IC50 [7]	Ratio IC50 (Raji [8])	Ratio IC50 [9]
C=C[C@@H](O)[C@@H]1OC(=O)C[C@@H]1OC	19.6	4.52	9.2	18.6	5.36	> 100	2.74	7.17	11.9										
O=C1C[C@H]2O[C@H](CI)[C@H](O)[C@H]2O1										> 100	> 100	> 1000	> 100	> 1000	inactive				
CO[C@@H]1CC(=O)O[C@@H]1[C@@H](O)[C@H](O)COC(=O)c1ccccc1	25.6	8.61	15.6	19.4	15.6	> 100	10.6	18.9	31.2										
C=C[C@H](OCc1ccccc1)[C@H]1OC(=O)C[C@H]1OC	27.9	11.5	5.67	34.4	11.6	> 100	7.59	12.7	12.6										
CO[C@H]1CC(=O)O[C@H]1[C@H](OC(=O)c1ccccc1)[C@@H](COC(=O)c1ccccc1)OC(=O)c1ccccc1	24.1	5.58	1.31	17	23.4	> 100	17.9	6.38	23.7										
O=C1C[C@@H]2O[C@@H](CO)[C@@H](O)[C@@H]2O1	15.9	7.26	4.02	10.2	7.38	> 100	5.56	11.2	30							2.1			
O=C1C[C@@H](O)[C@@H]([C@@H](O)[C@@H](O)CO)O1	23.6	12.9	19.5	24.4	20.3	> 100	16.5	19.3	19.6										
Nc1c2c(nc3ccccc13)CCCC2															96%				
CO[C@@H]1CC(=O)O[C@@H]1[C@@H](OC(C)=O)[C@@H](COC(=O)c1ccccc1)OC(C)=O	9.78	6.31	13.5	31.4	22.1	> 100	7.23	16.5	28.4							2.1			
C=C[C@H](O)[C@H]1OC(=O)C[C@H]1OC	28.3	10.9	4.23	32.9	12.8	> 100	8.05	11.7	11.8	> 100	> 100	> 1000	> 100	> 1000	inactive				
C=C[C@@H](OCc1ccccc1)[C@@H]1OC(=O)C[C@@H]1OC	18.7	26.4	16.9	12.9	9.85	> 100	4.42	12.1	42.3										
CO[C@H]1CC(=O)O[C@H]1[C@H](OC(C)=O)[C@@H](COC(=O)c1ccccc1)OC(C)=O	21.4	23.8	29.4	27.7	24.2	87.9	16.2	19.4	13.2	> 100	> 100	> 1000	> 100	> 1000	85%				
O=C1C[C@@H](O)[C@@H]([C@@H](O)[C@H](O)CO)O1	8.64	0.89	0.63	2.64	3.25	> 100	2.36	0.74	5.32								2	1.1	1.3
CO[C@@H]1CC(=O)O[C@@H]1[C@@H](OC(=O)c1ccccc1)[C@H](COC(=O)c1ccccc1)OC(=O)c1ccccc1	14.1	15.3	13.2	14.1	15.9	> 100	3.36	8.58	13.5	> 100	> 100	> 1000	> 100	> 1000	40%				
O=C1C[C@H]2O[C@@H]3CO[C@@H]3[C@H]2O1	18.6	1.2	1.05	15.7	10.4	> 100	2.03	15.6	5.36								2.5		
C=C[C@H](OCc1ccccc1)[C@H]1OC(=O)C[C@H]1O	17.2	17	19.2	34.8	29.1	> 100	25.1	23.4	12.9										
CO[C@H]1CC(=O)O[C@H]1[C@H](OC(C)=O)[C@H](COC(=O)c1ccccc1)OC(C)=O	8.32	7.02	5.21	11.2	14	> 100	8.23	21	16.1										
CO[C@@H]1CC(=O)O[C@@H]1[C@@H](O)[C@@H](O)COC(=O)c1ccccc1	11.4	7.65	14.4	15.4	20.2	> 100	11.4	12.1	27.7										
C=C[C@@H](OCc1ccccc1)[C@@H]1OC(=O)C[C@@H]1O	22.6	54.1	9.44	22.2	11.3	> 100	3.95	11.2	21.3	> 100	> 100	> 1000	> 100	> 1000	13%				
CO[C@@H]1CC(=O)O[C@@H]1[C@H]1OC(=O)O[C@H]1COC(=O)c1ccccc1	13.4	7.03	4.31	21.3	16	> 100	10	10.6	25.8						51%				
CO[C@H]1CC(=O)O[C@H]1[C@H](O)[C@@H](O)COC(=O)c1ccccc1	29.6	10.6	12.8	21	32	> 100	9.89	10.3	19.9										
CO[C@@H]1CC(=O)O[C@@H]1[C@@H](OC(C)=O)[C@H](COC(=O)c1ccccc1)OC(C)=O	25.4	2.45	5.4	22.3	26.3	94.8	12	11	21.7	> 100	> 100	> 1000	> 100	> 1000	35%				
O=C1C[C@@H]2O[C@@H](CI)[C@@H](O)[C@@H]2O1	24.6	20.1	19.4	26.2	22.8	> 100	15.1	16.7	17.7	> 100	> 100	> 1000	> 100	> 1000	inactive				
CO[C@H]1CC(=O)O[C@H]1[C@H](O)[C@H](O)COC(=O)c1ccccc1	18.7	16	14.1	19.7	16.5	> 100	3.97	9.45	45.2	> 100	> 100	> 1000	> 100	> 1000	inactive				
